Blank lines part the entries; values can stand above or below the molecule they belong to.
How the values were obtained:
[1] = logP by shake-flask method, octanol/water; format: physicochemical; settings: 25.0 °C
Procedure: Two parallel experiments were carried out. Four different phase ratios of octanol:water (1:50, 1:75, 1:100, 1:125) were applied. The equilibration time was 1 h (Lauda M2OS, shaking thermostat Königshofen, Germany), and the phases were separated by centrifugation. The concentration decrease in the sample in the aqueous phase was detected by UV spectroscopy (Jasco V-550 UV/VIS spectrophotometer, Easton, MD, USA) measuring the absorbance before and after the partition at λmax = 280 nm. The logP value was calculated from the equation:(1) logP=log[A0−A1/A1(Vaq/Voct)] where A0 and A1 represent the absorbance value at the absorption maximum of the compound in the aqueous phase before and after partition.

[2] = Skin-PAMPA permeability of PER in different solvents; format: in vitro ADME
Procedure: Skin PAMPA™ sandwiches and stirring bars (P/N: 110211) were supplied by Pion Inc™. UV plates (UV-star microplate, clear, flat bottom, half area) were from Greiner Bio-one™ (Kremsmünster, Austria). Membranes were hydrated overnight with standard hydration solution (Pion Inc™., product number 120706). […] The acceptor (lower) plate contained 180 μL Prisma buffer pH 7.4 and a magnetic stirrer in each well. The PAMPA™ sandwich was incubated at 32 °C in a Gut-Box™ (from Pion Inc™). Stirring bars were applied in every well to avoid the effect of the unstirred water layer. The acceptor solution was sampled after 7.5, 15, 30, 60, 120, 240 and 360 min incubation. After each individual incubation period, 150 µL from the acceptor compartment was transferred to UV plates. The acceptor phase was replaced with fresh buffer solution.
The flux (J) was obtained as the slope of the permeability profile and expressed in µg/cm^2 × h units. For the linear regression analysis, the linear range of incubation period from 0 to 30 min was selected and used for calculation of flux of the model compound. Permeability coefficient Pm […] was calculated from the equation:Pm= J/CD(2) where CD is the donor phase concentration.

[3] = Penetration kinetics across pig ear skin; format: in vitro ADME
Procedure: Before use, hairs were shaved from the pig ear skin using an electric razor, and the skin thickness was adjusted between 700 and 1200 µm. This size range was achieved by cutting the dermis below hair follicle. The integrity of the skin was tested according to the Trans-Epidermal Water Loss (TEWL) method using a Delfin device.
After topical application of the test chemical (infinite dose, 1.13 mL/cm^2), the concentration of the chemical in the receptor fluid was measured by sampling 200 µL of receptor fluid and replacing it with fresh fluid on an hourly basis, up to 16 h.
The kinetic samples were directly injected into an LC/MS-MS system (Shimadzu Nexera LC system, Shimadzu, Kyoto, Japan) coupled with a mass spectrometer API 3500 (Sciex, Framingham, MA, USA). The analytical system was managed by Analyst v.1.6 software (Sciex, Framingham, MA, USA). The analytical column used was a Kinetex C18 from Phenomenex™ (Torrance, CA, USA) (50 × 2.0 mm, dp. 2.6 µm), and analysis was carried out with a gradient elution with mobile phases of 20 mM ammonium acetate (A) and acetonitrile (B). The column temperature was fixed at 50 °C, and the volume of the injection was 10 µL with a flow rate of 0.8 mL/min. The ionisation mode used was electrospray negative.
The calculation was carried out using GraphPad PrismT v.7 (GraphPad Software Inc., San Diego, CA, USA).

[4] = Stability in buffer solutions (LC/MS-MS method validation); format: physicochemical; settings: spiked at 426 and 21.5 ng/mL
Procedure: The specificity of the analytical method was controlled with blank (NaCl, 9 g/L) solution (Merck, Darmstadt Germany). The limit of quantitation (LoQ) was 2.43 ng/mL. Linearity was determined between the LoQ and 1000 ng/mL, with accuracy below ±15%, except at the LoQ, which was below ± 20%. Accuracy and precision were determined at least at two quality control (QC) theoretical concentrations: low (around 20 ng/mL) and middle (around 300 ng/mL). All QCs remained within the acceptance criteria (accuracy < ±15%). Matrix effects and stability in buffer solutions and buffer supplemented with pig skin were evaluated at two concentrations (426 and 21.5 ng/mL) in triplicate by spiking buffer solutions containing known amounts of chemical. […] A matrix effect was observed; therefore, all calibrations for this chemical were carried out in the matrix.

[5] = design: method as in L'Oréal Laboratories; settings: AH/A−; ref L'Oréal Laboratories; cited from earlier work
[6] = Skin-PAMPA membrane integrity study with piroxicam as model permeant; format: in vitro ADME; settings: piroxicam from aqueous solution; membranes pre-treated 7 h with each of 13 solvents
Procedure: Possible disruption by solvents of the integrity of the biomimetic artificial membrane was investigated. Wells were filled with each solvent and incubated over a longer (minimum 7 h) incubation time than the duration of the tests with the model solutions. The solvents were aspirated from the wells, and the residue from the surface of the membrane was removed gently with cotton paper. A standard skin permeability assay was then performed using piroxicam as the model permeant, for which precise previous data are available. The logPm values were compared with the reference value from untreated plates.

[7] = design: method as in PMID 25957747; settings: aqueous solution, untreated Skin-PAMPA plates; cited from earlier work
[8] = PER in S2 Ethanol, CD 500 mg/mL
[9] = PER in S4 Dimethylisosorbide, CD 70 mg/mL
[10] = PER in S5 Water/ethanol 80:20 (w/w), CD 10 mg/mL
[11] = PER in S6 Water/dimethylisosorbide 90:10 (w/w), CD 1 mg/mL
[12] = PER in S7 Propylene glycol, CD 500 mg/mL
[13] = PER in S8 Water:propylene glycol 80:20 (w/w), CD 10 mg/mL
[14] = PER in S9 Water/propylenglycol/ethanol 10:30:60 (w/w/w), CD 500 mg/mL
[15] = PER in S10 Capric/caprylic triglycerides, CD 70 mg/mL
[16] = PER in S11 Octyl dodecanol, CD 1 mg/mL
[17] = PER in S12 Apricot kernel oil, CD 1 mg/mL
[18] = PER in S13 Corn oil, CD 1 mg/mL
[19] = PER in S4 Dimethylisosorbide, CD 60 mg/mL
[20] = PER in S5 Water/ethanol 80:20 (w/w), CD 8 mg/mL
[21] = PER in S7 Propylene glycol, CD 350 mg/mL
[22] = PER in S8 Water:propylene glycol 80:20 (w/w), CD 51 mg/mL
[23] = PER in S10 Capric/caprylic triglycerides, CD 75 mg/mL

logP [1]: 2.98 ^1
J (flux) ([2]; PER in S1 Water, CD 1 mg/mL): 72.4 ± 7.8 µg/cm^2 × h
Lag Time ([2]; PER in S1 Water, CD 1 mg/mL): 1.4 min
Permeated Amount (6 h) ([2]; PER in S1 Water, CD 1 mg/mL): 169 ± 4 µg/cm^2
logPm ([2]; PER in S1 Water, CD 1 mg/mL): −1.12 ± 0.06
J (flux) [2, 8]: 12,033 ± 252 µg/cm^2 × h
Lag Time [2, 8]: 0.0 min
Permeated Amount (6 h) [2, 8]: 13,575 ± 1710 µg/cm^2
logPm [2, 8]: −1.62 ± 0.01
J (flux) ([2]; PER in S3 Glycerol, CD 5 mg/mL): 137 ± 22 µg/cm^2 × h
Lag Time ([2]; PER in S3 Glycerol, CD 5 mg/mL): 5.5 min
Permeated Amount (6 h) ([2]; PER in S3 Glycerol, CD 5 mg/mL): 869 ± 112 µg/cm^2
logPm ([2]; PER in S3 Glycerol, CD 5 mg/mL): −1.57 ± 0.07
J (flux) [2, 9]: 209 ± 53 µg/cm^2 × h
Lag Time [2, 9]: 3.6 min
Permeated Amount (6 h) [2, 9]: 1342 ± 298 µg/cm^2
logPm [2, 9]: −2.54 ± 0.13
J (flux) [2, 10]: 589 ± 25 µg/cm^2 × h
Lag Time [2, 10]: 0.9 min
Permeated Amount (6 h) [2, 10]: 1662 ± 169 µg/cm^2
logPm [2, 10]: −1.23 ± 0.03
J (flux) [2, 11]: 76.4 ± 15.2 µg/cm^2 × h
Lag Time [2, 11]: 0.0 min
Permeated Amount (6 h) [2, 11]: 175 ± 22 µg/cm^2
logPm [2, 11]: −1.13 ± 0.07
J (flux) [2, 12]: 2118 ± 502 µg/cm^2 × h
Lag Time [2, 12]: 3.8 min
Permeated Amount (6 h) [2, 12]: 11,142 ± 729 µg/cm^2
logPm [2, 12]: −2.38 ± 0.11
J (flux) [2, 13]: 570 ± 5 µg/cm^2 × h
Lag Time [2, 13]: 1.1 min
Permeated Amount (6 h) [2, 13]: 1772 ± 98 µg/cm^2
logPm [2, 13]: −1.24 ± 0.01
J (flux) [2, 14]: 10,846 ± 326 µg/cm^2 × h
Lag Time [2, 14]: 1.4 min
Permeated Amount (6 h) [2, 14]: 14,926 ± 2431 µg/cm^2
logPm [2, 14]: −1.66 ± 0.01
J (flux) [2, 15]: 377 ± 36 µg/cm^2 × h
Lag Time [2, 15]: 3.0 min
Permeated Amount (6 h) [2, 15]: 749 ± 92 µg/cm^2
J (flux) [2, 16]: 7.18 ± 1.6 µg/cm^2 × h
Lag Time [2, 16]: 3.9 min
Permeated Amount (6 h) [2, 16]: 19 ± 0.4 µg/cm^2
J (flux) [2, 17]: 2.45 ± 0.57 µg/cm^2 × h
Lag Time [2, 17]: 3.3 min
Permeated Amount (6 h) [2, 17]: 13 ± 1.9 µg/cm^2
logPm [2, 17]: −2.63 ± 0.07
J (flux) [2, 18]: 3.26 ± 0.41 µg/cm^2 × h
Lag Time [2, 18]: 1.4 min
Permeated Amount (6 h) [2, 18]: 13 ± 1.3 µg/cm^2
logPm [2, 18]: −2.48 ± 0.06
calculated lag times ([2]; span over all 13 solvents): 0 to 6 min
J (flux) ([3]; PER in S1 Water, CD 1 mg/mL): 25 ± 9.6 µg/cm^2 × h
Permeated Amount (16 h) ([3]; PER in S1 Water, CD 1 mg/mL): 261 ± 100 µg/cm^2
logKp ([3]; PER in S1 Water, CD 1 mg/mL): −1.71 ± 0.32
Permeated Amount (16 h) ([3]; PER in S2 Ethanol, CD […]): 98 ± 67 µg/cm^2
J (flux) [3, 19]: 0.08 ± 0.024 µg/cm^2 × h
logKp [3, 19]: −5.88 ± 0.19
J (flux) [3, 20]: 61 ± 18 µg/cm^2 × h
Permeated Amount (16 h) [3, 20]: 515 ± 203 µg/cm^2
logKp [3, 20]: −1.97 ± 0.34
J (flux) [3, 11]: 7.5 ± 3 µg/cm^2 × h
Permeated Amount (16 h) [3, 11]: 100 ± 37 µg/cm^2
logKp [3, 11]: −2.16 ± 0.26
J (flux) [3, 21]: 20 ± 17.6 µg/cm^2 × h
Permeated Amount (16 h) [3, 21]: 147 ± 120 µg/cm^2
logKp [3, 21]: −4.24 ± 0.81
J (flux) [3, 22]: 98 ± 50 µg/cm^2 × h
Permeated Amount (16 h) [3, 22]: 516 ± 109 µg/cm^2
logKp [3, 22]: −1.72 ± 0.34
Permeated Amount (16 h) ([3]; PER in S9 Water/propylenglycol/ethanol 10:30:60 (w/w/w), CD […]): 320 ± 149 µg/cm^2
J (flux) [3, 23]: 8 ± 3.5 µg/cm^2 × h
Permeated Amount (16 h) [3, 23]: 54 ± 34 µg/cm^2
logKp [3, 23]: −3.97 ± 0.29
stability in buffer solutions spiked with PER [4]: 98.3 ± 7.0%
Molecule: 4-phenylethyl-resorcinol [PER]
pKa [5]: 9.77–10.77 (AH/A^−) ^2

logPm of piroxicam, mean across solvent-treated membranes [6]: −4.25 ± 0.30
Molecule: CN1C(C(=O)Nc2ccccn2)=C(O)c2ccccc2S1(=O)=O [piroxicam]
reference logPm of piroxicam [7]: −4.98 ± 0.01

Reference: paper PMC8625559 (Pharmaceutics, 2021)
